The source of these data is patent US10058612B2, “Impaired energy processing disorders and mitochondrial deficiency” (priority 2011, dated 2018).

Series [1] can be described thus: Incorporation into animal tissues by isotope ratio mass-spectrometry. As to conditions: 0.01-100 mg/kg diet; brain, liver, heart, lung. The procedure: Brain, liver, heart, and lung tissue are removed, and homogenate samples from control mice and test compound-treated mice are analyzed for deuterium content as described for Example 7 above.
Series [2] has as its system Q-less coq3 yeast strains. The note with it: 200 μM total ALA and D4-Lnn. The method, then:
FIG. 10. […] Serial dilutions (1:5) starting at 0.2 OD/ml were spotted on YPD solid plate medium. Growth at 30° C.
Serial dilutions (1:5) starting at 0.2 OD/ml were spotted on YPD solid plate medium. Growth was at 30° C.

Series [3] has as its system coq null mutants (Q-less yeast). Type of series: cell-based, S. cerevisiae. As to conditions: for viability of cells by quantitative colony counting / viability of coq mutants after fatty acid treatment: 200 μM fatty acid; for viability of cells by quantitative colony counting: 1, 2, 4 h; for viability of coq mutants after fatty acid treatment: plate dilution assay. The method, then:
FIG. 3. […] Yeast coq3, coq7 and coq9 null mutants were prepared in the W303 yeast genetic background (WT). Yeast strains were grown in YPD medium (1% Bacto-yeast extract, 2% Bacto-peptone, 2% dextrose) and harvested while in log phase growth (OD600 nm=0.1-1.0). Cells were washed twice with sterile water and resuspended in phosphate buffer (0.10 M sodium phosphate, pH 6.2, 0.2% dextrose) to an OD600 nm=0.2. Samples were removed and 1:5 serial dilutions starting at 0.20 OD/ml were plated on YPD plate medium, to provide a zero time untreated control (shown in top left panel). The designated fatty acids were added to 200 μM final concentration to 20 ml of yeast in phosphate buffer. At 2 h, 4 h, and 16 h samples were removed, 1:5 serial dilutions prepared, and spotted onto YPD plate medium. Pictures were taken after 2 days of growth at 30° C.
FIG. 4. […] The fatty acid sensitive assay was performed as described in FIG. 3, except that 100 μl aliquots were removed at 1, 2, and 4 h and, following dilution, spread onto YPD plates. Pictures were taken after 2 to 2.5 days, and the number of colonies counted. Yeast strains include Wild type (circles), atp2 (triangles), or coq3 (squares). Fatty acid treatments include oleic C18:1 (solid line), linolenic, C18:3, n-3 (dashed line) or 11,11,14,14-D4-linolenic, C18:3, n-3, (dotted line).
Q-less yeast (coq mutants) provide an ideal system to assess in vivo autoxidation of fatty acids. Coenzyme Q (ubiquinone or Q) serves as a small lipophilic antioxidant as well as an electron shuttle in the respiratory chain of the mitochondrial inner membrane.
A plate dilution assay can be used to assess PUFA sensitivity. This assay can be performed by spotting serial five-fold dilutions of aliquots onto YPD plate media (FIG. 3). The sensitivity of the different strains can be observed by visual inspection of the density of cells in each spot.

Series [4] is described as follows: Study in patients suffering from Huntington's disease. As to conditions: in vivo. The method, then:
(§1) Patients with schizophrenia and free of antipsychotic medication are selected for the study. […] Each week, patients are evaluated for frequency and duration of schizophrenic episodes. Additionally, blood samples are taken each week and biomarkers of oxidative stress, such as the biomarkers described above, are measured.
A similar study can be performed with patients suffering from Huntington's disease.

Series [5] is described as follows: Study in patients with schizophrenia. Type of series: in vivo. As to conditions: 0.01-100 mg/kg daily over six months. The procedure:
as §1

Series [6] in a line: Study in patients suffering from Bipolar Disorder. The note with it: in vivo. The procedure: as §1
A similar study can be performed with patients suffering from Bipolar Disorder.

For series [7], the system named is Q-less coq3 yeast strains. Nature of the series: Yeast incubation with different ratios of LA to D2-LA, plate dilution. Type of series: cell-based. The method, then:
FIG. 9. […] Wild-type, yeast Q-less coq3, or respiratory deficient cor1 null mutants were incubated in the presence of 200 μM of LA and D2-LA at different ratios of PUFAs. Serial dilutions (1:5) starting at 0.2 OD/ml were spotted on YPD solid plate medium. A zero-time untreated control is shown on the top left. Growth at 30° C.
Wild-type, yeast Q-less coq3, or respiratory deficient cor1 null mutants were incubated in the presence of 200 μM of LA and D2-LA at different ratios of PUFAs, as indicated in FIG. 9. Serial dilutions (1:5) starting at 0.2 OD/ml were spotted on YPD solid plate medium. […] Growth was at 30° C.

Series [8] relates to coq null mutants (Q-less yeast). The note with it: cited from earlier work.
Series [9] has as its system wild-type (strain W303-1B) cells. The note with it: four hour treatment; cited from earlier work.
A short description of series [10]: Kinetics of oxidation of mixtures of D2-LA and LA. Type of series: physicochemical. The method, then: FIG. 8. Dependence of the rate of oxidation of the mixture of LA and D2-LA in chlorobenzene solution on mixture composition. Conditions: [LA]+[11,11-d2-LA]=0.775 M; [AMVN]=0.0217 M; 37° C. RIN=(1.10±0.08)×10^−7 M/sec.
To simulate the likely in vivo conditions, the kinetics of the oxidation of the mixtures of D2-LA and LA were studied (FIG. 8). In the experiments, the concentration of LA plus 11,11-d2-LA was 0.775 M; the concentration of AMVN was 0.0217 M; and the reactions were carried out at 37° C. The results afforded an RIN of 1.10±0.08×10^−7 M/sec.

A further series has as its system Wild-type yeast cells. Nature of the series: C11-Bodipy 581/591 lipid peroxidation in copper-stressed yeast. Type of series: cell-based. As to conditions: 200 μM fatty acid 2 hours, then 50 μM CuSO4 60 min. The procedure: Wild-type yeast cells were treated as described above except yeast were treated with 200 μM of the designated fatty acid for 2 hours, washed with sterile water, and were either not treated (triangles) or treated with 50 μM CuSO4 (squares) at room temperature. After 60 min of copper treatment cells were treated with 8 μM C11-Bodipy 581/591 for 30 min at room temperature. Four 100 μl aliquots were plated in a 96-well plate and the fluorescence was measured.

Series [11] can be described thus: Kinetics of O2 consumption during AMVN-initiated oxidation (glass capillary microvolumeter). The note with it: for rate of oxidation, ROX: 0.71 M in chlorobenzene, 40 mM AMVN. Type of series: physicochemical. The procedure: FIG. 7. Kinetics of O2 consumption accompanied the oxidation of 0.71 M LA (plots 1 and 2) and 0.71 M D2-LA (plot 3) in chlorobenzene initiated by 40 mM AMVN at 37° C. Plot 2-0.23 mM HPMC was added to 0.71 M LA.
The kinetics of oxygen consumption during the oxidation of LA and D2-LA was studied with a glass capillary microvolumeter (FIG. 7). The rate of oxidation, ROX, was measured as a slope of [O2] traces. The rate of initiation, RIN, was determined by the inhibitor method with HPMC (“6-hydroxy-2,2,5,7,8-pentamethylbenzochroman”) as a reference inhibitor. RIN was calculated from the induction period of inhibited oxidation, tIND: RIN=2·[HPMC]/tIND. […] See Carpenter, “Determination of Organic Reaction Mechanisms” (John Wiley & Sons, 1984), p. 89.

On the set-up of series [12]: species or system WT mice. As to conditions: both, mouse, in vivo, 90 days. An excerpt:
WT mice were housed at 12 animals (males separate from females) per cage and fed for 90 days ad libitum (typically, 5-6 g/day) on the AIN 93 diet, as pellets, with 6% total fat. […] The animals were sacrificed, organs harvested and stored at low temperature prior to analysis without the use of preservation agents.

Series [13] deals with m-Fibroblasts (Frda^L3/L-; h-I54F). Nature of the series: Friedreich's ataxia model: viability of FAC/BSO-treated fibroblasts (Promega Cell-Glow). The note with it: for cell survival on co-administration with idebenone: compared with individual administration of idebenone, D-LA, or D-ALA. Type of series: cell-based. The method, then:
m-Fibroblasts (Frda^L3/L-; h-I54F) have both frataxin alleles deleted and over-express a mutated form of human frataxin (I154F) that is associated with the disease. […] Cells were plated in 48 well-plates and treated with FAC and BSO for 48 h and 24 h respectively. […] At the end of the experiment, cell viability was assessed by the Promega Cell-Glow kit and measured in Arbitrary Luminescence Units (ALU) also expressed as % survival (FIG. 22). In FIG. 22, NT stands for not treated; F stands for iron ammonium citrate; B stands for buthionine sulphoximine; CC stands for carrier control DMSO (dimethylsulfoxide) used to bring the final concentration in the assay to 0.5%; and IDB stands for idebenone.
Likewise, an investigation was undertaken to measure the effects of co-administering idebenone with D-PUFAs (FIG. 23).
Additional experiments were also performed to study the effects of co-administering different D-PUFAs (data not shown). I154F cells were treated with either 100% D-LA, 75% D-LA/25% D-ALA, 50% D-LA/50% D-ALA, and 100% D-ALA.

“Also recorded” adds a separate entry of the source. Like-named read-outs stand apart in the source and are kept apart here.

As to “11,11,14,14-Tetradeutero-cis,cis,cis-octadeca-8,12,15-trienoic acid [D4-ALA]”, the “presence in tissues and cells (deuterium content)” value in [1] was “expected to be found in the tissues and cells analyzed”. For the same compound, the “minimal amount sufficient to cancel the toxicity of ALA” value in series [2] is 15-20%. Moreover, in series [3], the “viability of cells by quantitative colony counting” value is on record as “similar”. Moreover, the “viability of coq mutants after fatty acid treatment” value (shortened to “viability of coq mutants”) in series [3] (listed as D4-linolenic acid) was “resistant to PUFA-mediated cell killing; also recorded: not killed”. The “levels of biomarkers associated with oxidative stress” value is “reduce neuronal cell death and the levels of biomarkers associated with oxidative stress” in series [4]; “reduce the levels of biomarkers associated with oxidative stress” in [5]; “reduce the levels of biomarkers associated with oxidative stress” in [6].

For `[2H]C(/C=C\CCCCC)/C=C\CCCCCCCC(=O)O` (centres unmarked) [11,11-D,H-LA, [11-^2H]-linoleic acid], the cell viability result in [7] (after 3 hours of treatment, data not shown) is given as “no detectable loss in cell viability”.

Turning to `[2H]C([2H])(/C=C\C/C=C\CC)C/C=C\CCCCCCC(=O)O` [11, 11-D2-linolenic acid, 11,11-Dideutero-cis,cis,cis-octadeca-8,12,15-trienoic acid], the “viability of coq mutants” value in series [3] was “comparable protection”.

In the case of `[2H]C([2H])(/C=C\CC)/C=C\CC/C=C\CCCCCCC(=O)O` [14, 14-D2-linolenic acid, 14,14-Dideutero-cis,cis,cis-octadeca-8,12,15-trienoic acid], in series [3], the “viability of coq mutants” value is listed as “comparable protection”.

`CC/C=C\C/C=C\C/C=C\CCCCCCCC(=O)O` [ALA, cis,cis,cis-9,12,15-Octadecatrienoic acid, reference compound]: the “viable Q-less (coq2, coq3, and coq5) yeast mutants” value in series [8] (four hour treatment) is on record as “Less than 1%”. Moreover, the “wild-type cells remaining viable” value in series [9] was 70%. Moreover, the “viability of coq mutants” value in series [3] was “dramatic loss of viability”. Also, the “reduction of viability of the coq mutants” value in series [3] (treatment for 4 h, colony counting) is recorded as “more than 100 fold”.

On to `[2H]C([2H])(/C=C\CCCCC)/C=C\CCCCCCCC(=O)O` [D2-LA, 11,11-Dideutero-cis,cis-octadeca-9,12-dienoic acid], for which, in series [10] (mixture with LA), the “protection of non-deuterated LA against autoxidation” value is given as “‘protects’ the non-deuterated LA against autoxidation”. Also, the protection against autoxidation result in series [10] (mixture with non-deuterated methyl linoleate, data not shown) is reported as “qualititatively similar effect”. Also, the “levels of lipid peroxidation” value in the series on Wild-type yeast cells was “lower levels of lipid peroxidation similar to yeast not treated with PUFA”. Besides, the “effect of addition of HPMC on oxidation” value in series [11] was “did not result in the decrease in ROX and the appearance of any detectable induction period”. Besides, the “length of the kinetic chain, ν=ROX/RIN” value in series [11] was “≈ 1.1”. Further, the “rate of oxidation, ROX” value in series [11] (37° C.) was 1.8e-07 M/s. In addition, in series [11] (chlorobenzene, 37° C.), the “kinetic isotope effect (KIE) from ROX for LA and D2-LA” value is given as “≈ 35”. For the same compound, the “total fat being deuterated, liver” value in series [12] was “about 32%”. Further, the “levels of biomarkers associated with oxidative stress” value in series [4] was “reduce neuronal cell death and the levels of biomarkers associated with oxidative stress”; in [5] it was “reduce the levels of biomarkers associated with oxidative stress”; in series [6], “reduce the levels of biomarkers associated with oxidative stress”. The “minimal amount sufficient to cancel the toxicity of LA” value in series [7] (200 μM total LA and D2-LA) is 10-15%.

Turning to `[2H]C([2H])(/C=C\CCCCC)/C=C\CCCCCCCC(=O)O` [D-LA], the “cell viability (ALU, % survival)” value in series [13] (FAC 48 h, BSO 24 h, PUFA added 2 hours after BSO) is reported as “dose-dependent rescue of viability”. The “cell survival on co-administration with idebenone” value in series [13] is “increased cell survival”.

In the case of `CCCCC/C=C\C/C=C\CCCCCCCC(=O)O` [LA, cis,cis-9,12-Octadecadienoic acid, reference compound], the “length of the kinetic chain, ν=ROX/RIN” value in [11] came to 38±3. Moreover, in series [11] (37° C.), the “rate of oxidation, ROX” value was found to be 6.1e-06 M/s. In [11] (n=5), the oxidizability turned out to be 0.0215±0.008 M^−0.5s^−0.5.

With `CCCCC/C=C\C/C=C\C/C=C\C/C=C\CCCC(=O)O` [arachidonic acid], the “sensitivity of Q-less yeast to the fatty acid” value in [8] was “hypersensitive”.

Take `CCCCCCCC/C=C\CCCCCCCC(=O)O` [oleic acid, reference compound]: the “sensitivity of Q-less yeast to the fatty acid” value in [8] is recorded as “behave the same as the wild-type parental strain”. For the same compound, the “viability of cells by quantitative colony counting” value in series [3] was “similar”.

As to D-ALA, the “cell survival on co-administration with idebenone” value in series [13] was “increased cell survival”.
